Measurements reported in the NIST ThermoML archive (doi:10.1021/je700670k).

Settings: Liquid, Vibrating tube method

CCn1cc[n+](C)c1.O=S(=O)([O-])C(F)(F)F [1-ethyl-3-methylimidazolium trifluoromethanesulfonate]
mass density [kg/m3]
Settings | 293.15 K | 303.15 K | 313.15 K | 323.15 K | 333.15 K | 353.15 K | 393.15 K
100 kPa | 1379.6 | 1370.2 | 1361.1 | 1352 | 1342.8 | 1325.3 | 1291.1
1000 kPa | 1380 | 1370.7 | 1361.6 | 1352.5 | 1343.3 | 1325.9 | 1291.7
2000 kPa | 1380.6 | 1371.5 | 1362.2 | 1353.2 | 1344 | 1326.6 | 1292.4
3000 kPa | 1381.1 | 1372.1 | 1362.9 | 1353.8 | 1344.6 | 1327.2 | 1293.2
4000 kPa | 1381.8 | 1372.7 | 1363.5 | 1354.4 | 1345.3 | 1327.9 | 1293.9
5000 kPa | 1382.5 | 1373.2 | 1364.1 | 1355.1 | 1346 | 1328.6 | 1294.5
7500 kPa | 1383.9 | 1374.6 | 1365.7 | 1356.7 | 1347.6 | 1330.3 | 1296.4
10000 kPa | 1385.4 | 1376.1 | 1367.3 | 1358.2 | 1349.2 | 1332 | 1298.1
15000 kPa | 1388.2 | 1379 | 1370.2 | 1361.2 | 1352.3 | 1335.3 | 1302
20000 kPa | 1391 | 1381.9 | 1373.1 | 1364.2 | 1355.4 | 1338.5 | 1305.2
25000 kPa | 1393.7 | 1384.7 | 1376 | 1367.2 | 1358.4 | 1341.9 | 1308.7
30000 kPa | 1396.4 | 1387.5 | 1378.8 | 1370.1 | 1361.4 | 1344.8 | 1312
35000 kPa | 1399.1 | 1390.2 | 1381.6 | 1372.9 | 1364.3 | 1347.8 | 1315.3

CCC[N+]1(C)CCCC1.O=S(=O)([N-]S(=O)(=O)C(F)(F)F)C(F)(F)F
mass density [kg/m3]
Settings | 293.15 K | 303.15 K | 313.15 K | 323.15 K | 333.15 K | 353.15 K | 393.15 K
100 kPa | 1438.6 | 1428.6 | 1418.6 | 1408.7 | 1399 | 1380 | 1343.2
1000 kPa | 1439.3 | 1429.3 | 1419.3 | 1409.4 | 1399.7 | 1380.8 | 1344
2000 kPa | 1440 | 1430 | 1420.1 | 1410.1 | 1400.5 | 1381.7 | 1344.9
3000 kPa | 1440.7 | 1430.8 | 1420.9 | 1411 | 1401.4 | 1382.5 | 1345.8
4000 kPa | 1441.4 | 1431.6 | 1421.7 | 1411.8 | 1402.2 | 1383.4 | 1346.8
5000 kPa | 1442.1 | 1432.2 | 1422.5 | 1412.6 | 1403 | 1384.3 | 1347.8
7500 kPa | 1444 | 1434.1 | 1424.3 | 1414.4 | 1405 | 1386.4 | 1350.2
10000 kPa | 1445.8 | 1435.9 | 1426.3 | 1416.3 | 1407 | 1388.5 | 1352.5
15000 kPa | 1449.2 | 1439.4 | 1429.9 | 1420.1 | 1410.8 | 1392.6 | 1357.1
20000 kPa | 1452.6 | 1443 | 1433.4 | 1423.8 | 1414.6 | 1396.6 | 1361.5
25000 kPa | 1456 | 1446.4 | 1436.9 | 1427.4 | 1418.3 | 1400.4 | 1365.8
30000 kPa | 1459.2 | 1449.7 | 1440.3 | 1431 | 1421.9 | 1404.2 | 1370
35000 kPa | 1462.3 | 1453 | 1443.6 | 1434.4 | 1425.4 | 1407.9 | 1374

CCCC[N+]1(C)CCCC1.O=S(=O)([N-]S(=O)(=O)C(F)(F)F)C(F)(F)F
mass density [kg/m3]
Settings | 293.15 K | 303.15 K | 313.15 K | 323.15 K | 333.15 K | 353.15 K | 393.15 K
100 kPa | 1409.1 | 1399.3 | 1389.5 | 1379.8 | 1370.2 | 1351.5 | 1315.2
1000 kPa | 1409.7 | 1399.9 | 1390.1 | 1380.4 | 1370.9 | 1352.3 | 1316.1
2000 kPa | 1410.5 | 1400.7 | 1390.9 | 1381.2 | 1371.7 | 1353.2 | 1317.1
3000 kPa | 1411.2 | 1401.4 | 1391.7 | 1382 | 1372.5 | 1354.1 | 1318.1
4000 kPa | 1411.9 | 1402.2 | 1392.5 | 1382.8 | 1373.4 | 1354.9 | 1319.1
5000 kPa | 1412.6 | 1402.9 | 1393.3 | 1383.6 | 1374.2 | 1355.8 | 1320
7500 kPa | 1414.4 | 1404.8 | 1395.2 | 1385.6 | 1376.1 | 1357.9 | 1322.5
10000 kPa | 1416.1 | 1406.6 | 1397 | 1387.5 | 1378.1 | 1360 | 1324.8
15000 kPa | 1419.6 | 1410.1 | 1400.7 | 1391.3 | 1382 | 1364.1 | 1329.5
20000 kPa | 1423 | 1413.6 | 1404.3 | 1394.9 | 1385.8 | 1368.1 | 1333.7
25000 kPa | 1426.3 | 1417 | 1407.7 | 1398.5 | 1389.5 | 1371.9 | 1338
30000 kPa | 1429.6 | 1420.3 | 1411.1 | 1402 | 1393.1 | 1375.7 | 1342.2
35000 kPa | 1432.8 | 1423.6 | 1414.4 | 1405.4 | 1396.6 | 1379.4 | 1346.2

CCC[n+]1cccc(C)c1.O=S(=O)([N-]S(=O)(=O)C(F)(F)F)C(F)(F)F
mass density [kg/m3]
Settings | 293.15 K | 303.15 K | 313.15 K | 323.15 K | 333.15 K | 353.15 K | 393.15 K
100 kPa | 1454.9 | 1444.4 | 1433.9 | 1423.7 | 1413.6 | 1393.7 | 1354.8
1000 kPa | 1455.6 | 1445.3 | 1434.8 | 1424.5 | 1414.4 | 1394.6 | 1355.8
2000 kPa | 1456.4 | 1446.1 | 1435.6 | 1425.3 | 1415.3 | 1395.5 | 1356.9
3000 kPa | 1457.1 | 1446.8 | 1436.4 | 1426.1 | 1416.1 | 1396.4 | 1357.9
4000 kPa | 1457.9 | 1447.6 | 1437.3 | 1427 | 1417 | 1397.4 | 1359
5000 kPa | 1458.7 | 1448.4 | 1438 | 1427.8 | 1417.8 | 1398 | 1360
7500 kPa | 1460.5 | 1450.3 | 1440 | 1429.9 | 1419.8 | 1400.2 | 1362.5
10000 kPa | 1462.4 | 1452.2 | 1441.9 | 1431.9 | 1421.9 | 1402.5 | 1365
15000 kPa | 1466.1 | 1455.9 | 1445.7 | 1435.7 | 1425.9 | 1406.8 | 1369.7
20000 kPa | 1469.6 | 1459.6 | 1449.5 | 1439.5 | 1429.9 | 1411 | 1374.3
25000 kPa | 1473.1 | 1463.1 | 1453.1 | 1443.3 | 1433.7 | 1415.1 | 1378.8
30000 kPa | 1476.5 | 1466.6 | 1456.7 | 1446.9 | 1437.4 | 1419 | 1383.2
35000 kPa | 1479.8 | 1470 | 1460.3 | 1450.5 | 1441.1 | 1422.9 | 1387.5

CCC[N+]1(C)CCCCC1.O=S(=O)([N-]S(=O)(=O)C(F)(F)F)C(F)(F)F
mass density [kg/m3]
Settings | 293.15 K | 303.15 K | 313.15 K | 323.15 K | 333.15 K | 353.15 K | 393.15 K
100 kPa | 1416.9 | 1407.2 | 1397.4 | 1387.6 | 1377 | 1358.5 | 1322.3
1000 kPa | 1417.6 | 1407.8 | 1398.1 | 1388.3 | 1377.8 | 1359.3 | 1323.2
2000 kPa | 1418.3 | 1408.6 | 1398.9 | 1389.1 | 1378.6 | 1360.2 | 1324.3
3000 kPa | 1419 | 1409.3 | 1399.5 | 1389.9 | 1379.3 | 1361.1 | 1325.3
4000 kPa | 1419.6 | 1410 | 1400.2 | 1390.6 | 1380.1 | 1361.9 | 1326.2
5000 kPa | 1420.3 | 1410.7 | 1401 | 1391.4 | 1380.9 | 1362.8 | 1327.3
7500 kPa | 1422 | 1412.5 | 1402.8 | 1393.2 | 1382.8 | 1364.7 | 1329.7
10000 kPa | 1423.8 | 1414.3 | 1404.7 | 1395.1 | 1384.8 | 1366.7 | 1331.8
15000 kPa | 1427.1 | 1417.7 | 1408.2 | 1398.7 | 1388.5 | 1370.7 | 1336.3
20000 kPa | 1430.4 | 1421.1 | 1411.7 | 1401.9 | 1392.3 | 1374.7 | 1340.7
25000 kPa | 1433.7 | 1424.4 | 1415.1 | 1405 | 1396 | 1378.4 | 1344.8
30000 kPa | 1436.8 | 1427.6 | 1418.4 | 1408.6 | 1399.5 | 1382.1 | 1348.9
35000 kPa | 1439.9 | 1430.7 | 1421.7 | 1412.1 | 1403 | 1385.7 | 1353
